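Cells were grown in 96-well plates and exposed to each compound for 48 hours at five concentrations; endpoints were interpolated linearly between bracketing concentrations, or set to the highest concentration if not reached. Here, GI50 denotes the concentration required for 50% inhibition of growth.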 Activity calls are given as the source filed them. No stated cut-off is given here; in the data, active = GI50 up to about 1.1 µM and inactive = higher.
Assays:
Test in all cases: DTP human tumour cell line panel, 48 h
Malme-3M = tested on: Malme-3M
NCI-H23 = tested on: NCI-H23
HT-29 = tested on: HT-29
OVCAR-8 = tested on: OVCAR-8
NCI-H460 = tested on: NCI-H460
HCT-116 = tested on: HCT-116
HCT-15 = tested on: HCT-15
SK-MEL-2 = tested on: SK-MEL-2
PC-3 = tested on: PC-3
EKVX = tested on: EKVX
SNB-19 = tested on: SNB-19
MDA-MB-231 = tested on: MDA-MB-231
UO-31 = tested on: UO-31
K562 = tested on: K562
786-0 = tested on: 786-0
TK-10 = tested on: TK-10
CAKI-1 = tested on: CAKI-1
SW-620 = tested on: SW-620
SR = tested on: SR

Compound | GI50 (Malme-3M) | GI50 (NCI-H23) | GI50 (HT-29) | GI50 (OVCAR-8) | GI50 (NCI-H460) | GI50 (HCT-116) | GI50 (HCT-15) | GI50 (SK-MEL-2) | GI50 (PC-3) | GI50 (EKVX) | GI50 (SNB-19) | GI50 (MDA-MB-231) | GI50 (UO-31) | GI50 (K562) | GI50 (786-0) | GI50 (TK-10) | GI50 (CAKI-1) | GI50 (SW-620) | GI50 (SR)
CC[N+](CC)(CCNCC(N)=O)CC(N)=O | > 10 µM (inactive) | > 10 µM (inactive) | > 10 µM (inactive) | > 10 µM (inactive) | > 10 µM (inactive) | > 10 µM (inactive) | > 10 µM | > 10 µM (inactive) | > 10 µM (inactive) | > 10 µM (inactive) | > 10 µM (inactive) | > 10 µM (inactive) | > 10 µM (inactive) | > 10 µM (inactive) | > 10 µM (inactive) | > 10 µM (inactive) | > 10 µM (inactive) | > 10 µM (inactive) | –
CSC1=N/C(=C\c2ccc(Cl)cc2)C(=O)N1CN1CCOCC1 | 52.2 µM (inactive) | 66.8 µM (inactive) | 27.5 µM (inactive) | 21.7 µM (inactive) | – | 27.5 µM (inactive) | 21.6 µM | 52.8 µM (inactive) | 38.9 µM (inactive) | 53.5 µM (inactive) | 31.8 µM (inactive) | 43 µM (inactive) | 23 µM (inactive) | 33 µM (inactive) | 33.4 µM (inactive) | 27.5 µM (inactive) | – | 36.7 µM (inactive) | 0.0791 µM (active)
O=[N+]([O-])c1ccccc1S(=O)(=O)c1cc(Cl)cc2c1NCCC2 | 25.8 µM (inactive) | – | 70.3 µM (inactive) | > 100 µM (inactive) | 77.3 µM (inactive) | 41.7 µM (inactive) | 65.6 µM | 43.6 µM (inactive) | 52.1 µM (inactive) | > 100 µM (inactive) | 65 µM (inactive) | 34.1 µM (inactive) | 50.2 µM (inactive) | 37.5 µM (inactive) | 80 µM (inactive) | > 100 µM (inactive) | 60.4 µM (inactive) | > 100 µM (inactive) | 42.8 µM (inactive)
COC(=O)CC(CNC(=O)OCc1ccccc1)OCc1ccc(OC)cc1 (stereo not drawn) | > 100 µM (inactive) | 67.5 µM (inactive) | – | > 100 µM (inactive) | > 100 µM (inactive) | > 100 µM (inactive) | > 100 µM | > 100 µM (inactive) | 99.5 µM (inactive) | > 100 µM (inactive) | > 100 µM (inactive) | > 100 µM (inactive) | 50.6 µM (inactive) | > 100 µM (inactive) | > 100 µM (inactive) | > 100 µM (inactive) | > 100 µM (inactive) | > 100 µM (inactive) | > 100 µM (inactive)
O=C1/C(=C/c2ccccc2)CCCc2ccccc21 | 20.8 µM (inactive) | 17.5 µM (inactive) | 17.7 µM (inactive) | 20.4 µM (inactive) | 16 µM (inactive) | 16.8 µM (inactive) | 16.2 µM | 16.2 µM (inactive) | 18.1 µM (inactive) | 19.5 µM (inactive) | 14 µM (inactive) | 20.1 µM (inactive) | 17.6 µM (inactive) | 19.2 µM (inactive) | 16.4 µM (inactive) | 19.8 µM (inactive) | 22.3 µM (inactive) | 17.7 µM (inactive) | 14.4 µM (inactive)
CC[C@H](CC[C@@H](C)[C@H]1CC[C@H]2[C@@H]3CC=C4C[C@@H](O)CC[C@]4(C)[C@H]3CC[C@]12C)C(C)C [BETA-SITOSTEROL] | > 100 µM (inactive) | > 100 µM (inactive) | > 100 µM (inactive) | > 100 µM (inactive) | > 100 µM (inactive) | > 100 µM (inactive) | > 100 µM | > 100 µM (inactive) | > 100 µM (inactive) | > 100 µM (inactive) | > 100 µM (inactive) | > 100 µM (inactive) | > 100 µM (inactive) | > 100 µM (inactive) | > 100 µM (inactive) | > 100 µM (inactive) | > 100 µM (inactive) | > 100 µM (inactive) | –

Reference: ChEMBL document CHEMBL1201862, “PubChem BioAssay data set” (2004)
